Data reported in US12447153B2, “HER2 mutation inhibitors” (Array BioPharma Inc., priority 2021, dated 2025).

Assays:
EGFR = EGFR (Homo sapiens (Human), UniProt P00533); assay: ErbB Enzyme Assay (HTRF KinEASE-TK), Assay 3; format: biochemical; details: EGFR enzyme assay
ErbB2 WT = ErbB2 WT (Homo sapiens (Human), UniProt P04626); assay: ErbB Enzyme Assay (HTRF KinEASE-TK), Assay 2; format: biochemical; details: ErbB2 WT enzyme assay
[1] = molecular target: ErbB2 with Exon 20 YVMA insertion (HER2-YVMA) (Homo sapiens (Human), UniProt P04626, INS775YVMA); assay: Cellular Phosphorylation Assay, Assay 4 (constitutive ErbB2 phosphorylation, NIH 3T3 cells); format: cell-based; details: cellular ErbB2 YVMA phosphorylation
EGFR wild type (EGFR WT) = EGFR wild type (EGFR WT) (Homo sapiens (Human), UniProt P00533); assay: Cellular Phosphorylation Assay, Assay 5 (EGF-stimulated EGFR phosphorylation, NIH 3T3 cells); format: cell-based; details: cellular EGFR WT phosphorylation, EGF-stimulated
EGFR wild type (EGFR WT), sequence (P00533 25-1210): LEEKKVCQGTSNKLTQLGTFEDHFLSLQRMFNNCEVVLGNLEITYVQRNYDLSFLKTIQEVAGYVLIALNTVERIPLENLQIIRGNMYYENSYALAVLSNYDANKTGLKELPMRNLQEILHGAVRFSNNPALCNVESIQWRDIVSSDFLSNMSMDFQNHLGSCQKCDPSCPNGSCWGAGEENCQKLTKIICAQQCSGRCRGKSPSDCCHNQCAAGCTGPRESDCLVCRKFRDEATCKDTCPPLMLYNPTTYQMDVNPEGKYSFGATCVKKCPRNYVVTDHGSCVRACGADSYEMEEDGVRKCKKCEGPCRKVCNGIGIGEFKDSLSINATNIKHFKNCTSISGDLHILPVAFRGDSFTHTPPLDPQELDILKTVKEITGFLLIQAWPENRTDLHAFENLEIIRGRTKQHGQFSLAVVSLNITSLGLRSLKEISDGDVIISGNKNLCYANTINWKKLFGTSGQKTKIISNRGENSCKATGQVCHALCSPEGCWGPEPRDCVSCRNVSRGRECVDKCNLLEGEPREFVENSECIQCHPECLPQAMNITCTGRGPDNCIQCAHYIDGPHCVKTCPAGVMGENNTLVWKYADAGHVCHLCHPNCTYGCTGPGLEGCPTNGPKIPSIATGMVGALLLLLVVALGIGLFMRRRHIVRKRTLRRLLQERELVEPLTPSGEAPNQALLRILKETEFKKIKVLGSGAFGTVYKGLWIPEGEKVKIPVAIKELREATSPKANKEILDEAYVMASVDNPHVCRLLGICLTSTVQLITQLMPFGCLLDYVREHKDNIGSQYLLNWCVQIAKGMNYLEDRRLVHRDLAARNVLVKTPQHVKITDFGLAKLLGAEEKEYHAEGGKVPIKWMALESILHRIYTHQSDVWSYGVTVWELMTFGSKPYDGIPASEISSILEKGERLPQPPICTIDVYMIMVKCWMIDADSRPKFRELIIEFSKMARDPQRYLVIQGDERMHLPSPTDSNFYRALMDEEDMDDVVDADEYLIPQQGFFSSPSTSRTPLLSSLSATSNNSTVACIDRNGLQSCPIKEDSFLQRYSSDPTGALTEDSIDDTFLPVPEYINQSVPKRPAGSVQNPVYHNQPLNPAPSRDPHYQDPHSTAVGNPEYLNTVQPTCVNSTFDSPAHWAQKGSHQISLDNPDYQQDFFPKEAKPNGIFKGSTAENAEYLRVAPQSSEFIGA

ErbB2 WT, sequence (P04626 23-1255): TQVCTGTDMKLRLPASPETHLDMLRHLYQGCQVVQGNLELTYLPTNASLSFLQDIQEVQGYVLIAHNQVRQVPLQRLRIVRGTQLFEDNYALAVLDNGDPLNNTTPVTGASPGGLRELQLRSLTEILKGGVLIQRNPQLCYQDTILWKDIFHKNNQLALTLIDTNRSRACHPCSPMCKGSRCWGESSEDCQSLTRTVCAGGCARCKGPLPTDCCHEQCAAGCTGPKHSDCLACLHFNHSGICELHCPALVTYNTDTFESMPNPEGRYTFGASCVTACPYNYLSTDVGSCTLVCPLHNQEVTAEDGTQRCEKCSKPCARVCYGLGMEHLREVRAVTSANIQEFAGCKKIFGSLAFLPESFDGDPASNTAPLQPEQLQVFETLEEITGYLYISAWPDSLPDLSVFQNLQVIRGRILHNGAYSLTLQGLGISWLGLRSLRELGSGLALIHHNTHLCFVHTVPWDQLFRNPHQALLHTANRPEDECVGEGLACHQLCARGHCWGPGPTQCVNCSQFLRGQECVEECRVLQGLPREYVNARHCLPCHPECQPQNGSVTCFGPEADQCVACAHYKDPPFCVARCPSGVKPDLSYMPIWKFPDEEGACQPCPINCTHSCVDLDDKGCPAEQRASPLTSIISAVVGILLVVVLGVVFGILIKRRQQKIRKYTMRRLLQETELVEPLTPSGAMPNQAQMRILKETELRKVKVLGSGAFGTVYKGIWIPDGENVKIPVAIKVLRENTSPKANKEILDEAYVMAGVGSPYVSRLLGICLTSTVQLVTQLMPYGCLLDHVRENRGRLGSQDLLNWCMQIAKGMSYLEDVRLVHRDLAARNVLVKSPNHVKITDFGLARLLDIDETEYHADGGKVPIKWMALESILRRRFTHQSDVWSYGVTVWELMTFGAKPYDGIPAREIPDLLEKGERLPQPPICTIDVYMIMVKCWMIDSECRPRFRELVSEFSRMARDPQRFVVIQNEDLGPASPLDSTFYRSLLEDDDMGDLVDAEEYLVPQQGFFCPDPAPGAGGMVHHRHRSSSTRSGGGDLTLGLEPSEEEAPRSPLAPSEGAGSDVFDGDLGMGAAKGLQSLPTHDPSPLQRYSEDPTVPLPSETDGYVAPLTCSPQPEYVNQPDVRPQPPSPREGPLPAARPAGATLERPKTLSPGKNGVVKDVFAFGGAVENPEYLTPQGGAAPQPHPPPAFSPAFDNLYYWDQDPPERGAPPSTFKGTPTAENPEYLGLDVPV
ErbB2 with Exon 20 YVMA insertion (HER2-YVMA), sequence (P04626 other isoform, or with tags, fused parts or gaps ins YVMA behind 775): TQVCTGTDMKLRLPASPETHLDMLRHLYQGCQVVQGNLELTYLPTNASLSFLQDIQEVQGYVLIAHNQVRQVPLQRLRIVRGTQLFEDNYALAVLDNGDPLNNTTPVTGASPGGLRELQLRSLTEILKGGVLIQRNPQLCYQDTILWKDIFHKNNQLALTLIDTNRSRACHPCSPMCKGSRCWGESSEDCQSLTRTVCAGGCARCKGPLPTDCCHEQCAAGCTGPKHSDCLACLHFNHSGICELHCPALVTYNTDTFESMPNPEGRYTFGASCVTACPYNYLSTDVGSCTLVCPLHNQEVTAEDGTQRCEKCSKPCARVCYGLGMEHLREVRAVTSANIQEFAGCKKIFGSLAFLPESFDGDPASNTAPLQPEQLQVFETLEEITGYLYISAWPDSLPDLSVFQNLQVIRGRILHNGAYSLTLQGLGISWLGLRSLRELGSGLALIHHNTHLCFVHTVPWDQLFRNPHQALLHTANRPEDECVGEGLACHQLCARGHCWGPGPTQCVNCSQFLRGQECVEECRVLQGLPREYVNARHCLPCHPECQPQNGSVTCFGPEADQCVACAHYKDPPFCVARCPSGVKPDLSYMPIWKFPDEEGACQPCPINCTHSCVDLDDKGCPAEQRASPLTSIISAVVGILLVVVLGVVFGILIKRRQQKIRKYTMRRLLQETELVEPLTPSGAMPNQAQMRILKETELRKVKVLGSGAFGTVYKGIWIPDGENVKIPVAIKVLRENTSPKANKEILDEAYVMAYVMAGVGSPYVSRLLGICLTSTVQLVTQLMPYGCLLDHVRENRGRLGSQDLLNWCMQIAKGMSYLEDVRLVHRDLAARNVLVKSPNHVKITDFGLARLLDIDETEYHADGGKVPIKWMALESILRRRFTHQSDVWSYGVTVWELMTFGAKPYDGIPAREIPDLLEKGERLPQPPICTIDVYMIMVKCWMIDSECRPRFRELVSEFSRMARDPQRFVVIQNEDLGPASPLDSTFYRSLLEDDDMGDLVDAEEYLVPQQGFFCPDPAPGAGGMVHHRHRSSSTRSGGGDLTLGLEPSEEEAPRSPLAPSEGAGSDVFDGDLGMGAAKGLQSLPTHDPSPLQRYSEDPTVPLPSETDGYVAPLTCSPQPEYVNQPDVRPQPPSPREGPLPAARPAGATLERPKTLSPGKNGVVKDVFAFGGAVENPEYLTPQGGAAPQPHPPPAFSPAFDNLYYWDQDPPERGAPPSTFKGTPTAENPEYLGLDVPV
EGFR, sequence (P00533 25-1210): as the sequence (P00533 25-1210) above

SMILES	IC50 (EGFR) [nM]	IC50 (ErbB2 WT) [nM]	IC50 [1] [nM]	IC50 (EGFR wild type (EGFR WT)) [nM]
C=CC(=O)N1C[C@H]2CC[C@@H]1CN2c1ccc2ncnc(Nc3cc(C)c(Oc4cnc5c(c4)ncn5C)cc3F)c2n1 [Example 367]	≥ 10000	2330	70.4	≥ 5000
C=CC(=O)N1C[C@H]2C[C@@H]1[C@H](c1ccc3ncnc(Nc4ccc(Oc5ccn6ncnc6c5)c(C)c4F)c3n1)C2 [Example 372]	1130	19	52.7	4080
C=CC(=O)N1C[C@@H]2C[C@H]1C[C@H]2c1ccc2ncnc(Nc3cc(C)c(Oc4ccn5ncnc5c4)cc3F)c2n1 [Example 373]	1580	55.5	44	3360
C=CC(=O)N1CCCCC(c2ccc3ncnc(Nc4cc(C)c(Oc5ccn6ncnc6c5)cc4F)c3n2)C1 (centres unmarked) [Example 376]	2110	33.5	36	4490
C=CC(=O)N1CCCCC(c2ccc3ncnc(Nc4ccc(Oc5ccn6ncnc6c5)c(C)c4F)c3n2)C1 (centres unmarked) [Example 377]	187	13	16.3	426
C=CC(=O)N1C[C@@H]2C[C@H]1CC[C@@H]2c1ccc2ncnc(Nc3cc(C)c(Oc4ccc5c(c4)ncn5C)cc3F)c2n1 [Example 378]	4560	54	66.3	≥ 5000
C=CC(=O)N1C[C@@H]2C[C@H]1CC[C@@H]2c1ccc2ncnc(Nc3ccc(Oc4ccc5c(c4)ncn5C)c(C)c3F)c2n1 [Example 379]	4210	29.2	36.5	≥ 5000
C=CC(=O)N1C[C@@H]2C[C@H]1CC[C@@H]2c1ccc2ncnc(Nc3cc(C)c(Oc4ccn5ncnc5c4)cc3F)c2n1 [Example 380]	5680	68.1	125	≥ 5000
C=CC(=O)N1C[C@@H]2C[C@H](c3ccc4ncnc(Nc5cc(C)c(Oc6ccn7ncnc7c6)cc5F)c4n3)C[C@H]1C2 [Example 390]	2210	68.1	30.2	1250
C=CC(=O)N1C[C@@H]2C[C@H](c3ccc4ncnc(Nc5ccc(Oc6ccn7ncnc7c6)c(C)c5F)c4n3)C[C@H]1C2 [Example 391]	368	23.9	19.8	238
C=CC(=O)N1[C@@H]2CC[C@H]1[C@H](c1ccc3ncnc(Nc4cc(C)c(Oc5ccn6ncnc6c5)cc4F)c3n1)C2 [Example 392]	1480	9.8	82	≥ 5000
C=CC(=O)N1CCCC(c2ccc3ncnc(Nc4cc(Cl)c(Oc5ccn6ncnc6c5)cc4F)c3n2)CC1 (centres unmarked) [Example 400]	3240	16	45.6	≥ 5000
C=CC(=O)N1C[C@H]2CC[C@H](c3ccc4ncnc(Nc5ccc(Oc6ccn7ncnc7c6)c(C)c5F)c4n3)[C@H]2C1 [Example 411]	598	44.9	35.2	1440
C=CC(=O)N1[C@@H]2CCC[C@H]1[C@@H](c1ccc3ncnc(Nc4cc(C)c(Oc5ccn6ncnc6c5)cc4F)c3n1)C2 [Example 414]	866	30.1	57.6	≥ 5000
C=CC(=O)N1[C@@H]2CC[C@H]1[C@H](c1ccc3ncnc(Nc4cc(C)c(Oc5cnc6c(c5)ncn6C)cc4F)c3n1)C2 [Example 417]	≥ 10000	215	51.6	≥ 5000
C=CC(=O)N1C[C@H]2C[C@@H]1[C@H](c1ccc3ncnc(Nc4ccc(Oc5cnc6c(c5)ncn6C)c(C)c4F)c3n1)C2 [Example 418]	5600	119	33.6	≥ 5000

The next lines start with the values.

IC50 (EGFR) [nM]	IC50 (ErbB2 WT) [nM]	IC50 [1] [nM]	IC50 (EGFR wild type (EGFR WT)) [nM]	SMILES
≥ 10000	127	556	≥ 5000	C=C(C)C(=O)N1CCN(c2ccc3ncnc(Nc4ccc(Oc5ccn6ncnc6c5)c(C)c4F)c3n2)CC1 [Example 364]
465	17.6	16.5	238	C=CC(=O)N1CCN(c2ccc3ncnc(Nc4cc(Cl)c(Oc5ccn6ncnc6c5)cc4F)c3n2)CC1C(F)F (centres unmarked) [Example 365]
68.3	7.3	5.3	35.6	C=CC(=O)N1CCN(c2ccc3ncnc(Nc4ccc(Oc5ccn6ncnc6c5)c(Cl)c4F)c3n2)CC1C(F)F (centres unmarked) [Example 366]
1990	56	47.3	3170	C=CC(=O)N1CCCC(c2ccc3ncnc(Nc4cc(C)c(Oc5ccn6ncnc6c5)cc4F)c3n2)C1 (centres unmarked) [Example 370]
3440	55	82.4	≥ 5000	C=CC(=O)N1C[C@H]2C[C@@H]1[C@H](c1ccc3ncnc(Nc4cc(C)c(Oc5ccn6ncnc6c5)cc4F)c3n1)C2 [Example 371]
1720	28.9	67.3	2640	C=CC(=O)N1C[C@@H]2C[C@H]1CC[C@@H]2c1ccc2ncnc(Nc3ccc(Oc4ccn5ncnc5c4)c(C)c3F)c2n1 [Example 381]
584	15	21	339	C=CC(=O)N1CC[C@H]2C[C@H](c3ccc4ncnc(Nc5ccc(Oc6ccn7ncnc7c6)c(C)c5F)c4n3)C[C@H]21 [Example 382]
277	20.4	31.1	685	C=CC(=O)N1C[C@@H]2C[C@H](c3ccc4ncnc(Nc5ccc(Oc6ccc7c(c6)ncn7C)c(C)c5F)c4n3)C[C@H]1C2 [Example 389]
1120	9.7	49.2	≥ 5000	C=CC(=O)N1C[C@H]2CC[C@@H]1[C@H](c1ccc3ncnc(Nc4ccc(Oc5ccn6ncnc6c5)c(C)c4F)c3n1)C2 [Example 397]
736	15.4	74	≥ 5000	C=CC(=O)N1C[C@H]2CC[C@@H]1[C@@H](c1ccc3ncnc(Nc4ccc(Oc5ccn6ncnc6c5)c(C)c4F)c3n1)C2 [Example 398]
177	1.9	19	461	C=CC(=O)N1CCCC(c2ccc3ncnc(Nc4ccc(Oc5ccn6ncnc6c5)c(Cl)c4F)c3n2)CC1 (centres unmarked) [Example 399]
1970	43.1	34.6	≥ 5000	C=CC(=O)N1C[C@H]2CC[C@H](c3ccc4ncnc(Nc5ccc(Oc6ccn7ncnc7c6)c(C)c5)c4n3)[C@H]2C1 [Example 409]
3670	120	82.7	≥ 5000	C=CC(=O)N1C[C@H]2CC[C@H](c3ccc4ncnc(Nc5cc(C)c(Oc6ccn7ncnc7c6)cc5F)c4n3)[C@H]2C1 [Example 410]
